We go through 53 compounds from patent US20110172217A1, “RING-FUSED MORPHOLINE DERIVATIVE HAVING PI3K-INHIBITING ACTIVITY” (Shionogi & Co., Ltd., priority 2008, published 2011).

What is called inhibition is the share of the control response that was lost under treatment.

Some results are limits rather than exact numbers.

For this experiment, the target named is PI-3 kinase γ (Homo sapiens, UniProt P48736). Put plainly: PI3Kγ inhibitory activity, PI3-kinase HTRF assay (inhibition ratio). It is filed as biochemical. To be noted: 0.5 h, compound at 50 μmol/L. Here is the method: For each compound synthesized in the above Examples, PI3Kγ inhibitory activity was measured.
PI-3 kinase γ, sequence (P48736 whole entry): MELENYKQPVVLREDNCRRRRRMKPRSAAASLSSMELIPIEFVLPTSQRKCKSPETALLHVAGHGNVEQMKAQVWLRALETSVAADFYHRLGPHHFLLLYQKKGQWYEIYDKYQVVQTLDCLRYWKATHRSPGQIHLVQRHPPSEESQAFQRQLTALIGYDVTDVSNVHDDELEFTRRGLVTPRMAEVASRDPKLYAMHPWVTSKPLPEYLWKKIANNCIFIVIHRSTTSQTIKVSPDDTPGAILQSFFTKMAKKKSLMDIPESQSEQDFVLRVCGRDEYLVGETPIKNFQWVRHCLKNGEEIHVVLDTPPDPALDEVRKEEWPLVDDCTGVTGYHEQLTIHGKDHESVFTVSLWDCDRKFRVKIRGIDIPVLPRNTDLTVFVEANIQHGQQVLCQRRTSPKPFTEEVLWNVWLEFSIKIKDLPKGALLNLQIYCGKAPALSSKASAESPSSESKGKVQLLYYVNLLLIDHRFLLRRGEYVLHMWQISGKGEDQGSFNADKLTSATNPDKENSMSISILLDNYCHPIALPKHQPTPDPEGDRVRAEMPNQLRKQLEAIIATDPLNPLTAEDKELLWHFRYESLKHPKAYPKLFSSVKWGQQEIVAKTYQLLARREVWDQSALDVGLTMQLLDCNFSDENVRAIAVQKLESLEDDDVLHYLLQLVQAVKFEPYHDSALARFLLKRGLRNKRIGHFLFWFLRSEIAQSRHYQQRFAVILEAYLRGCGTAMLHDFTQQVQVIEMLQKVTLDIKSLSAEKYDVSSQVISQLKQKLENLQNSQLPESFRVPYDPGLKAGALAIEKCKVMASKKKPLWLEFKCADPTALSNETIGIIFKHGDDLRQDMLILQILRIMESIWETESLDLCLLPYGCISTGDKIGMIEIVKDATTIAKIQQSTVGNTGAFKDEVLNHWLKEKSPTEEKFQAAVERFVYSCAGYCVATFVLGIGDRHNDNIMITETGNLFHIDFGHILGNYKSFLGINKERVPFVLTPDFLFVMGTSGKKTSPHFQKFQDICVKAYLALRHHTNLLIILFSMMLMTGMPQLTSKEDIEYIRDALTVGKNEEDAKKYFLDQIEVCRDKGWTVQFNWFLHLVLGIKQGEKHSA
The PI3Kγ inhibitory activity of a compound was evaluated using PI3-kinase HTRF™ assay (Millipore) according to the following procedure:
To each well of a testing plate, 5 μL of a compound solution containing 10% DMSO (200 μmol/L or 40 μmol/L as the concentration of the compound), 5 μL of a substrate solution (40 μmol/L phosphatidylinositol (4,5)-bisphosphate, 20 mmol/L MgCl2, 10 mmol/L DTT), and 5 μL of a enzyme solution (80 μg/mL PI-3 kinase γ, 10 mmol/L MgCl2, 5 mmol/L DTT) were added, and then allowed to stand for 10 minutes.
Then, 5 μL of a reaction solution (40 μmol/L ATP, 10 mmol/L MgCl2, 5 mmol/L DTT) was added thereto. After reacting for 30 minutes at room temperature, 5 μL of a solution containing EDTA and biotinylated phosphatidylinositol (3,4,5)-triphosphate were added to quench the reaction.
5 μL of a detection reagent containing a europium-labeled anti-GST antibody, the GST-tagged PH domain, and allophycocyanin-labeled streptavidin was added thereto. After 18 hours, HTRF (excitation wavelength: 330 nm, measured wavelengths: 620 nm and 665 nm) was measured.
HTRF ratio was defined as the value obtained by dividing the amount of fluorescence obtained at the measured wavelength 665 nm by the amount of fluorescence obtained at 620 nm. The HTRF ratio in the absence of a compound was defined as 100% activity and the HTRF ratio in the absence of PI-3 kinase γ was defined as 0% activity to calculate an inhibition ratio which was defined as the PI3Kγ inhibitory activity of a compound at 50 μmol/L or 10 μmol/L.
For the compound `O=C(Nc1ccccc1)N1CCOc2cc(-c3ccnn3C3CCCCO3)cnc21` (centres unmarked) [Compound I-250], the inhibition at 50 µM came to 91%. For the compound `CC(C)(C)OC(=O)CNC(=O)c1ccc(Nc2ccc3c(n2)N(C(=O)Nc2ccccc2)CCO3)cc1` [Compound I-273], the inhibition at 50 µM worked out at 76%. As for `C=CCC1(C)SC(N2CCOc3cccnc32)=NC1=O` (centres unmarked) [Compound I-3], the figure is 80%; as for `CC(C)(C)OC(=O)NCCOc1cc(C(=O)O)ccc1Nc1ccc2c(n1)N(C(=O)Nc1ccccc1)CCO2` [Compound I-226], not below 95%; as for `COC(=O)c1cncc(-c2ccc3c(n2)N(C(=O)Nc2ccccc2)CCO3)c1` [Compound I-249], not below 95%. As for `O=C(Nc1ccccc1)N1CCOc2ccc(N3CCOCC3)nc21` [Compound I-207], the inhibition at 50 µM came out at 81%. `COC(=O)c1cccc(-c2ccc3c(n2)N(C(=O)Nc2ccccc2)CCO3)c1` [Compound I-103]: the inhibition at 50 µM amounted to 94%. Take `CC(C)(C)OC(=O)c1ccc(Nc2ccc3c(n2)N(C(=O)Nc2ccccc2)CCO3)cc1` [Compound I-143]: the inhibition at 50 µM is not below 95%. Take `O=C(O)c1ccc(-c2cnc3c(c2)OCCN3C(=O)Nc2ccccc2)cc1` [Compound I-111]: the inhibition at 50 µM amounted to 87%. The figure for `CNC(=O)c1ccc(-c2ccc3c(n2)N(C(=O)Nc2ccccc2)CCO3)cc1` [Compound I-70] is 71%; for `O=C(O)c1ccc(-c2ccc3c(n2)N(C(=O)Nc2ccccc2)CCO3)cc1` [Compound I-51] it is 93%; for `O=C(O)c1cncc(-c2ccc3c(n2)N(C(=O)Nc2ccccc2)CCO3)c1` [Compound I-184] it is not below 95%. Turning to `CC1CN(C(=O)Nc2ccccc2)c2nc(-c3ccc(C(=O)O)cc3)ccc2O1` (centres unmarked) [Compound I-290], the inhibition at 50 µM amounted to 86%. As for `CC(C)(C)OC(=O)N1CCC(Nc2ccc3c(n2)N(C(=O)Nc2ccccc2)CCO3)CC1` [Compound I-231], the inhibition at 50 µM was not below 95%. As for `O=C(O)c1ccc(NC(=O)c2ccc3c(n2)N(C(=O)Nc2ccccc2)CCO3)cc1` [Compound I-40], the inhibition at 50 µM was found to be 80%. For `CCCc1ccc2c(n1)N(C(=O)Nc1ccccc1)CCO2` [Compound I-90], the inhibition at 50 µM amounted to 72%. The figure for `O=C(Nc1ccccc1)N1CCOc2cc(Nc3ccc4ncsc4c3)cnc21` [Compound I-317] is not below 95%; for `Cc1noc(C)c1-c1ccc2c(n1)N(C(=O)Nc1ccccc1)CCO2` [Compound I-100] it is not below 95%. The figure for `O=C(Nc1ccccc1)N1CCOc2ccc(-c3cncnc3)nc21` [Compound I-106] is not below 95%. As for `O=C(O)c1ccc(-c2cnc3c(c2)OCCN3C(=O)Nc2ccccc2)s1` [Compound I-285], the figure is 88%; as for `O=C(Nc1ccccc1)N1CCOc2ccc(Nc3ccccn3)nc21` [Compound I-180], not below 95%. With `O=C(Nc1ccccc1)N1CCOc2ccc(/C=C/c3ccccc3)nc21` [Compound I-60], the inhibition at 50 µM amounted to 74%. As for `COc1ccc(Nc2cnc3c(c2)OCCN3C(=O)Nc2ccccc2)cc1` [Compound I-313], the figure is 92%; as for `CCOC(=O)Cc1ccc(Nc2ccc3c(n2)N(C(=O)Nc2ccccc2)CCO3)cc1` [Compound I-212], not below 95%; as for `O=C(O)Cc1cccc(-c2ccc3c(n2)N(C(=O)Nc2ccccc2)CCO3)c1` [Compound I-152], not below 95%. With `O=C(Nc1ccccc1)N1CCOc2cc(-c3cnn(CCN4CCOCC4)c3)cnc21` [Compound I-293], the inhibition at 50 µM is not below 95%. Turning to `COC(=O)c1ccc(N(C)c2cnc3c(c2)OCCN3C(=O)Nc2ccccc2)cc1` [Compound I-243], the inhibition at 50 µM came out at 77%. `NCCOc1cccc(Nc2ccc3c(n2)N(C(=O)Nc2ccccc2)CCO3)c1` [Compound I-222]: the inhibition at 50 µM was not below 95%. For the compound `O=C(Nc1ccccc1)N1CCOc2ccc(Nc3cccnc3)nc21` [Compound I-181], the inhibition at 50 µM is not below 95%. As for `CN(c1ccc(C(=O)O)cc1)c1ccc2c(n1)N(C(=O)Nc1ccccc1)CCO2` [Compound I-284], the figure is 82%.

Turning to `O=C(O)c1ccc(-c2ccc3c(n2)OCCN3C(=O)Nc2ccccc2C(=O)O)cc1` [Compound I-259], the inhibition at 50 µM is not below 95%. Regarding `O=C(O)CCc1ccc2c(n1)N(C(=O)Nc1ccccc1)CCO2` [Compound I-94], the inhibition at 50 µM is not below 95%. Turning to `CCOC(=O)CC(=O)Nc1ccc2c(n1)N(C(=O)Nc1ccccc1)CCO2` [Compound I-122], the inhibition at 50 µM amounted to 87%.

Consider `CC(C)(C)OC(=O)NCCOc1ccc(Nc2ccc3c(n2)N(C(=O)Nc2ccccc2)CCO3)cc1` [Compound I-214], for which the inhibition at 50 µM was not below 95%. As for `N#Cc1ccc(Nc2cnc3c(c2)OCCN3C(=O)Nc2ccccc2)cc1` [Compound I-318], the figure is not below 95%; as for `CCOC(=O)CNC(=O)Nc1cnc2c(c1)OCCN2C(=O)Nc1ccccc1` [Compound I-238], 83%; as for `O=C(Nc1ccccc1)N1CCOc2ccc(-c3ccc(CO)cc3)nc21` [Compound I-97], 89%. For `CC(C)(C)OC(=O)COc1cccc(Nc2ccc3c(n2)N(C(=O)Nc2ccccc2)CCO3)c1` [Compound I-233], the inhibition at 50 µM was not below 95%. For `O=C(Nc1cccnc1)N1CCOc2cc(Nc3ccccc3)cnc21` [Compound I-271], the inhibition at 50 µM is not below 95%. As for `COc1ccc(NC(=O)N2CCOc3ccc(Nc4ccc(C(=O)O)cc4)nc32)cc1OC` [Compound I-210], the inhibition at 50 µM was not below 95%.

On to `O=C(NC1CCCCC1)N1CCOc2cccnc21` [Compound I-17], for which the inhibition at 50 µM turned out to be 88%. With `O=C(Nc1ccccc1)N1CCOc2ccc(-c3ncco3)nc21` [Compound I-84], the inhibition at 50 µM was found to be 72%. As to `O=C(O)CNC(=O)c1cccc(Nc2ccc3c(n2)N(C(=O)Nc2ccccc2)CCO3)c1` [Compound I-277], the inhibition at 50 µM was not below 95%.

On to `O=C(Nc1ccccc1)N1CCOc2ccc(C3CCCCC3)nc21` [Compound I-86], for which the inhibition at 50 µM was 82%.

Turning to `Cc1n[nH]c(C)c1-c1ccc2c(n1)N(C(=O)Nc1ccccc1)CCO2` [Compound I-189], the inhibition at 50 µM was determined as 83%. Take `O=C(Nc1ccccc1)N1CCOc2cc(-c3cn[nH]c3)cnc21` [Compound I-251]: the inhibition at 50 µM was not below 95%. For `CC(C)(C)OC(=O)CCNC(=O)c1cnc2c(c1)OCCN2C(=O)Nc1ccccc1` [Compound I-305], the inhibition at 50 µM was determined as 84%. For `Cc1ccc(Nc2cnc3c(c2)OCCN3C(=O)Nc2ccccc2)cc1F` [Compound I-319], the inhibition at 50 µM amounted to 92%. As for `CC(C)(C)OC(=O)COc1ccccc1Nc1ccc2c(n1)N(C(=O)Nc1ccccc1)CCO2` [Compound I-242], the figure is not below 95%. In the case of `O=C(Nc1ccccc1)N1CCOc2cccnc21` [Compound I-2], the inhibition at 50 µM came out at 89%.

Turning to `COC(=O)c1ccc(Nc2ccc3c(n2)N(C(=O)Nc2ccccc2)CCO3)cc1` [Compound I-229], the inhibition at 50 µM was not below 95%. Consider `CC(C)(C)OC(=O)n1c(-c2cnc3c(c2)OCCN3C(=O)Nc2ccccc2)cc2ccccc21` [Compound I-283], for which the inhibition at 50 µM came to 85%.

For `COc1ccc(-c2ccc3c(n2)N(C(=O)Nc2ccccc2)CCO3)cc1` [Compound I-98], the inhibition at 50 µM amounted to 73%.
